# According to patent EP0029617A1, “Use of tertiary heterocyclic amines as synergists in pesticides; derivatives of cycloamines” (priority 1979, dated 1981):
# Read-outs that look alike come from different tables or passages of the source.
# How the values were obtained:
# [1] = system: Kornkäfer (sitophilus granarius L); assay: whole plant or invertebrate; type: in vivo; settings: for mortality at 1000 µg/mL: read-out: Wirksamkeit in % Substanz allein
# How it was run: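 Acetone solutions (2 ml) were dried as films in 15 cm Petri dishes and 25 grain weevils added per dish, with a filter inserted after 1 h. Dead beetles were counted at 3 h at 19–21 °C, and % mortality and the synergistic factor were derived.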
# Drosophila melanogaster = assay: whole plant or invertebrate; type: in vivo
# From the text: Die insektiziden Wirkungen von tertiären heterocyclischen Aminen und die synergistischen Eigenschaften mit dem Phosphorsäureester Dimethoat und dem Carbamat Dimetilan, getestet an Drosophila melanogaster.
# Die Versuche wurden in Petrischalen von 10 cm Durchmesser ausgeführt. Es wurden zunächst die gerade noch wirksamen Konzentrationen von Dimethoat und Dimetilan bestimmt. Für Dimethoat wurde 0,005 % und für Dimetilan 0,0001 % als günstige Versuchskonzentration ermittelt. Die Aminkomponente wurde mit 1 ml 0,05%iger Lösung + 1 ml Aceton auf insektizide Wirkung getestet. Zur Bestimmung des Synergismus wurde 1 ml 0,05%ige Aminlösung + 1 ml 0,005.%ige Dimethoatlösung, bzw. + 1 ml 0,0001%ige Dimetilanlösung pro Petrischale eingesetzt. Alle Verdünnungen wurden mit Aceton als Lösungsmittel hergestellt.
# In den Petrischalen wurden die Lösungen am Boden gut verteilt und 30 min lang antrocknen lassen. In jede Petrischale wurden 20 mit Kohlendioxid betäubte Drosophila eingezählt. Alle 5 min, insgesamt 12 mal, wurde die Anzahl der toten Drosophila ausgezählt und notiert. Die Zahlen wurden aufsummiert und im Verhältnis zur möglichen Zahl an toten Drosophila in % angegeben, wobei der Tot aller Drosophila innerhalb der ersten 5 min 100 % Wirkung entspricht. Jeder Versuch wurde mit 3 Wiederholungen durchgeführt. In Tabelle 1 sind die Mittelwerte der Ergebnisse zusammengestellt.
# Zur Ermittlung des synergistischen Faktors wurden die Einzelwerte pro Zeiteinheit durch die für Dimethoat, bzw. Dimetilan für die jeweilige Zeiteinheit gefundenen Werte dividiert. Die Werte für jede Zeiteinheit wurden summiert und durch die Anzahl der Zeiteinheiten dividiert. Die Versuche wurden bei sonst stets gleichbleibenden Bedingungen bei Temperaturen von 20 - 22°C ausgeführt. Die Kontrollversuche zeigten bei Versuchsabschluß stets 0 % Mortalität. Hat die Substanz selbst eine insektizide Wirkung, so wurden die Wirkungsfaktoren für Dimethoat und Dimetilan nach Abzug des Substanzwertes berechnet und in der Tabelle aufgeführt.
# Im Beispiel 1 war das Verhältnis von Insektizid und erfindungsgemäßem Amin 1 : 10 in den Gemischen mit Dimethoat. In der Tabelle 2 sind Verhältnisse von 1 : 1, 1 : 2 und 1 : 0,2 bei Versuchen mit Dimethoat aufgeführt, dabei wurde das Dimethoat immer in einer Konzentation von 0,005 % eingesetzt. Die Tabelle zeigt, daß auch bei diesen Verhältnissen noch eine gute synergistische Wirkung vorhanden ist, und es keineswegs einer großen überdosierung des Amins bedarf.
# [2] = amine 1 mg/ml + Ripcord 0,01 mg/ml
# [3] = amine 1 mg/ml in Aceton mixed 1 : 1 with Aceton, 2 ml per dish, 25 weevils, dead counted after 3 h
# [4] = amine 1 mg/ml mixed 1 : 1 with Ripcord 0,01 mg/ml, 3 h
# [5] = amine 1 mg/ml mixed 1 : 1 with Talcord 0,01 mg/ml, 3 h
# [6] = 1 ml 0,05%ige amine solution + 1 ml 0,0001%ige Dimetilan solution
# [7] = 1 ml 0,05%ige amine solution + 1 ml 0,005 %ige Dimethoat solution (Dimethoat : amine 1 : 10)
# [8] = 1 ml 0,05%ige amine solution + 1 ml Aceton per dish, 20 flies, dead counted every 5 min, 12 times, mean values
# [9] = amine 0,05 % + Dimethoat 0,005 %, calculated after subtracting the amine's own effect
# [10] = amine 0,05 % + Dimetilan 0,0001 %, calculated after subtracting the amine's own effect
# [11] = Sitophilus granarius, amine 1 mg/ml in Aceton mixed 1 : 1 with Aceton, 2 ml per dish, 25 weevils, dead counted after 3 h
# [12] = amine 1 mg/ml + Talcord 0,01 mg/ml
# [13] = Drosophila melanogaster, 1 ml 0,05%ige amine solution + 1 ml Aceton per dish, 20 flies, dead counted every 5 min, 12 times, mean values, read-out: Wirksamkeit in % Substanz allein
# [14] = sitophilus granarius, in vivo, 3 h
# [15] = drosophila melanogaster, in vivo
# [16] = Pyrethroid : Amin 1 : 10, amine 0,1 mg/ml, 180 min
Structure (SMILES),"Synergistischer Faktor bei Ripcord [1, 2]","Wirksamkeit in % Substanz allein [1, 3]","Wirksamkeit in % Substanz +Ripcord [1, 4]","Wirksamkeit in % Substanz +Talcord [1, 5]",Wirksamkeit in % Substanz +Dimeti-lan (Drosophila melanogaster; [6]),Wirksamkeit in % Substanz +Dimethoat (Drosophila melanogaster; [7]),Wirksamkeit in % Substanz allein (Drosophila melanogaster; [8]),Faktor der Wirkungssteigerung bei Dime-methoat (Drosophila melanogaster; [9]),Faktor der Wirkungssteigerung bei Dimi-tilan (Drosophila melanogaster; [10]),"Synergistischer Faktor bei Talcord [1, 12]",mortality at 0.05 % (Drosophila melanogaster; [13]) [%],also measured
"C(CCCCN1CCOCC1)CCCN1CCOCC1 [1,8-N,N-Dimorpholino-octan]","1,56","44,0%","93,2%","50,8%","10,4%","23,8%","1,3%","2,62","3,64",,,
C(=Cc1ccccc1)CN1CCCC1 [1-Cinnamyl-pyrrolidin],"3,08",,"97,2%","30,8%","55,4%","5,8%",,,"22,2","3,17",0,"mortality at 1000 µg/mL [1, 11]: 0%"
CCCCCCCCCN1CCCCC1CC (stereo not drawn) [1-n-Nonyl-2-ethyl-piperidin],,,,,"7,9%","24,6%",,"2,19",,,5.8,
CCCCOC(CN1CCOCC1)OCCCC [2-N-Morpholino-ethyl-di-butyl-acetal],,,,,,,,,,,,"Synergistischer Faktor bei Ripcord ([1]; in vivo): 3,17; Synergistischer Faktor bei Talcord ([1]; in vivo): 10,31; Wirksamkeit in % Substanz +Ripcord [1, 14]: 100%; Wirksamkeit in % Substanz +Talcord [1, 14]: 100%; Wirksamkeit in % Substanz allein [1, 14]: 0%; Wirksamkeit in % Substanz +Dimethoat (Drosophila melanogaster; [15]): 17,9%; Wirksamkeit in % Substanz +Dimeti-lan (Drosophila melanogaster; [15]): 3,3%; Wirksamkeit in % Substanz allein (Drosophila melanogaster; [15]): 0,4%; Faktor der Wirkungssteigerung bei Dime-methoat (Drosophila melanogaster; in vivo): 2,03; Faktor der Wirkungssteigerung bei Dimi-tilan (Drosophila melanogaster; in vivo): 1,16"
CCCCCC(CCCCC)N1CCCC1 [6-N-Pyrrolidino-undecan],"1,90",0%,"60,0%","58,8%","75,8%","54,2%","39,6%","1,70","14,48","6,06",,
"Cc1cc(OC(=O)N(C)C)nn1C(=O)N(C)C [Dimetilan, reference compound]",,,,,,,,,,,,"mortality at 0.0001 % (Drosophila melanogaster; Drosophila melanogaster, read-out: Wirksamkeit von Dimetilan): 2.5%"
CCCCCCCCCCN1CCCCC1CC (stereo not drawn) [N-1-Decyl-2-ethyl-piperidin],,,,,"56,3%","55,8%",,"2,42","8,52",,35,
CCCCCCCCCCN1CCCCC1 [N-1-Decyl-piperidin],,,,,,,,,,,,"Synergistischer Faktor bei Ripcord ([1]; Pyrethroid : Amin 1 : 10): 3,09; Synergistischer Faktor bei Talcord ([1]; Pyrethroid : Amin 1 : 10): 6,72; % Wirkung Substanz +Ripcord [1, 16]: 97,2%; % Wirkung Substanz +Talcord [1, 16]: 65,2%; mortality at 100 µg/mL ([1]; Sitophilus granarius, 3 h, amine 0,1 mg/ml (as for Pyrethroid : Amin 1 : 10), read-out: % Wirkung Substanz allein): 0%; mortality at 0.005 % (Drosophila melanogaster; Drosophila melanogaster, amine 0,005 %, read-out: Sub-stanz allein): 0%; Substanz + Dime-thoat (Drosophila melanogaster; amine 0,005 % + Dimethoat 0,005 %, Dimethoat : Amin 1 : 1): 45,4%; Faktor der Wirkungs-steigerung (Drosophila melanogaster; amine 0,005 %, Dimethoat : Amin 1 : 1): 5,28"
CCCCCCCCCCN1CCCC1 [N-1-Decyl-pyrrolidin],,,"100,0%","100,0%","4,8%","17,1%",,"1,65",,"1,90",2.9,"mortality at 1000 µg/mL [1, 11]: 81.6%"
C=CC(C)(CCC=C(C)C)N1CC1 (stereo not drawn) [N-1-Linalyl-aziridin],"2,99",0%,"97,2%","65,2%","0,42%","21,7%",0%,"2,67",,"6,72",,
C=CC(C)(CCC=C(C)C)N1CCOCC1 (stereo not drawn) [N-1-Linalyl-morpholin],"2,92",0%,"92,0%","33,2%","20,0%","30,8%","11,7%","2,22","3,32","3,42",,
CCCCCCCCCCCCCCN1CCOCC1 [N-1-Tetradecyl-morpholin],"2,03",,"64,0%","5,2%","2,5%","57,1%",,"6,64",,,0,"mortality at 1000 µg/mL [1, 11]: 0%"
CCCCCCCCCCCCCN1CCCCC1 [N-1-Tridecyl-piperidin],"3,05",,"96,0%","17,2%","2,3%","54,6%",,"6,35",,"1,77",0,"mortality at 1000 µg/mL [1, 11]: 0%; mortality at 0.01 % (Drosophila melanogaster; Drosophila melanogaster, amine 0,01 %, read-out: Sub-stanz allein): 0%; mortality at 0.05 % (Drosophila melanogaster; Drosophila melanogaster, amine 0,05 %, read-out: Sub-stanz allein): 0%; Substanz + Dime-thoat (Drosophila melanogaster; amine 0,01 % + Dimethoat 0,005 %, Dimethoat : Amin 1 : 2): 42,9%; Faktor der Wirkungs-steigerung (Drosophila melanogaster; amine 0,01 %, Dimethoat : Amin 1 : 2): 4,99; Substanz + Dime-thoat (Drosophila melanogaster; amine 0,05 % + Dimethoat 0,005 %, Dimethoat : Amin 1 : 10): 54,6%; Faktor der Wirkungs-steigerung (Drosophila melanogaster; amine 0,05 %, Dimethoat : Amin 1 : 10): 6,35"
c1ccc(OCCCN2CCCCC2)cc1 [N-(1-Phenoxi-propyl-(3))-piperidin],"2,96",0%,"93,2%","29,2%","12,1%","8,8%",0%,,"4,8","3,01",,
CCCCOCCOCCN1CCOCC1 [N-(2'-Butoxi-diethylether-(2))-morpholin],,,,,,,,,,,,"Synergistischer Faktor bei Ripcord ([1]; in vivo): 2,96; Synergistischer Faktor bei Talcord ([1]; in vivo): 8,12; Wirksamkeit in % Substanz +Ripcord [1, 14]: 93,2%; Wirksamkeit in % Substanz +Talcord [1, 14]: 78,8%; Wirksamkeit in % Substanz allein [1, 14]: 0%; Wirksamkeit in % Substanz +Dimethoat (Drosophila melanogaster; [15]): 12,9%; Wirksamkeit in % Substanz +Dimeti-lan (Drosophila melanogaster; [15]): 3,5%; Wirksamkeit in % Substanz allein (Drosophila melanogaster; [15]): 1,7%; Faktor der Wirkungssteigerung bei Dime-methoat (Drosophila melanogaster; in vivo): 1,30"
C(=CC1CCCCC1)CN1CCCC1 [N-(3-Cyclohexyl-propen-(2))-pyrrolidin],,,,,0%,"22,5%",0%,"2,86",,,,
CCCCOCCOCCOCCN1CCCC1 [N-(a-Butyl-triethylen-tri-ether-(w))-pyrrolidin],"3,05",0%,"96,0%","13,2%","1,7%","23,3%",0%,"2,97",,"1,24",,
CCCCCCCCCCN1CCCCC1C (stereo not drawn) [N-Decyl-2-methyl-piperidin],,,,,"77,9%","66,7%",,,"2,87",,61.3,
